Data as given in PMC6731595, “The anti-parasitic agent suramin and several of its analogues are inhibitors of the DNA binding protein Mcm10” (Open Biology, 2019).

T1: Xenopus internal domain Mcm10 (xMcm10-ID) (Xenopus laevis, UniProt Q5EAW4)
T1 construct: xMcm10-ID (amino acid residues 229 to 427); 6xHis (HRV 3C site) (N, cleaved yes); made in house; host or cells: E. coli BL21(DE3)
T1 sequence (Q5EAW4 229-427): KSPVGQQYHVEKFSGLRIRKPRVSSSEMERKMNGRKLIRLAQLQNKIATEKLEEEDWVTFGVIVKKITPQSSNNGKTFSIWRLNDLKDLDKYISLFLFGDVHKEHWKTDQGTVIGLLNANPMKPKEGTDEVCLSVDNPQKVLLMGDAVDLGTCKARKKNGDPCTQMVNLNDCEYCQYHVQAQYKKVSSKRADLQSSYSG

T2: hMcm10-ID (Homo sapiens, UniProt Q7L590 237-436)
T2 sequence: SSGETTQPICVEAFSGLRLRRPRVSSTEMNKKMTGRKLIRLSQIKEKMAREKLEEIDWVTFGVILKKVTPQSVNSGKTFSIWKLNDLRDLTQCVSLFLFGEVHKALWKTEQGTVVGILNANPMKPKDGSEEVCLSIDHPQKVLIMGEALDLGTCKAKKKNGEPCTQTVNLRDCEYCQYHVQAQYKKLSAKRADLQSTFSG

T3: xMcm10-FL (Xenopus laevis, UniProt Q5EAW4 1-860)
T3 sequence: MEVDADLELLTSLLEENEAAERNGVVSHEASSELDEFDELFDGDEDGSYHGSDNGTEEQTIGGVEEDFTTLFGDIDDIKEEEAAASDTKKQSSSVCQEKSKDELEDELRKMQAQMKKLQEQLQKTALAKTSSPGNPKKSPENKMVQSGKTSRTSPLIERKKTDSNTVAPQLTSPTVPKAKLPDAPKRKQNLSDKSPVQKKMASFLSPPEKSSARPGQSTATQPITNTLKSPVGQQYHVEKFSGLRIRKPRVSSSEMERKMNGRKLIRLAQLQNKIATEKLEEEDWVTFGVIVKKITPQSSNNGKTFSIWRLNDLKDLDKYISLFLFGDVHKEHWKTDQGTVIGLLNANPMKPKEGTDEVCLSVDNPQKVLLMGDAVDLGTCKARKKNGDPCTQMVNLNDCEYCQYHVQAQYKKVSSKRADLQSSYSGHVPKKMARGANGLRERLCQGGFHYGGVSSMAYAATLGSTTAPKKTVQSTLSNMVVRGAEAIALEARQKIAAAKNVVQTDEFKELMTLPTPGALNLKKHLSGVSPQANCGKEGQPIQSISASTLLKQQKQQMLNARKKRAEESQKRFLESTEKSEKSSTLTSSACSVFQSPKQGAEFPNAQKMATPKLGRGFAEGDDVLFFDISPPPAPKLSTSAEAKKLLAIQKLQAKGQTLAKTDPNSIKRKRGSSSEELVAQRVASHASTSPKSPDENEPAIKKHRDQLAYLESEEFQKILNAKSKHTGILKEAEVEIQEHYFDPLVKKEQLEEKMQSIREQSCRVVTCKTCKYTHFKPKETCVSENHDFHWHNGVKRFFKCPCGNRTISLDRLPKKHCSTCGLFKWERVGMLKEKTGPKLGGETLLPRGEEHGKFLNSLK

T4: xMcm10-ID (Xenopus laevis, UniProt Q5EAW4 229-427)
T4 sequence: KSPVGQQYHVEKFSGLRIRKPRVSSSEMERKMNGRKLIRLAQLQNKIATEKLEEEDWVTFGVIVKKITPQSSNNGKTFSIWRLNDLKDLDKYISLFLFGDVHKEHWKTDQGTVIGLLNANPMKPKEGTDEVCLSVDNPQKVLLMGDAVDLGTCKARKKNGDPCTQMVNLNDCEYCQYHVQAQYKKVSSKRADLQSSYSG


Key:
[1] = target: T1, Xenopus internal domain Mcm10 (xMcm10-ID); assay: Fluorescence polarization HTS and dose-response assay, 5′-6FAM probe binding to xMcm10-ID; conditions: dose-response with repurchased or purchased compound
Experimental: A fluorescence polarization (FP) HTS assay was established to detect inhibitors of the binding of the 5′-6FAM 10-mer oligo probe to Mcm10. Test compounds dissolved in DMSO were added to 384-well plates (Corning 4514) using an Echo 550 acoustic dispenser (final DMSO 0.1%) to achieve a final single point screening concentration of 10 µM. Then 10 µl of 2× Xenopus internal domain Mcm10 (xMcm10-ID, final concentration 2 µM) in binding buffer (20 mM Tris HCl, 100 mM NaCl, 5% glycerol, and 0.01% triton, pH 7.5) was added using the Combi nL Multidrop dispenser. Finally, 10 µl of 2× 5′-6FAM DNA (final 12.5 nM) in binding buffer was added using the Multidrop. DMSO (0.1%, high signal) and probe only (low signal) controls were included on every plate. Plates were mixed for 2 min, incubated for 60 min at RT in the dark, and read on a CLARIOstar multimode plate reader (excitation: 482-16, emission: 530-40, dichroic filter: LP504).
The LOPAC pilot screen identified the sulfhydryl reagent 4-chloromercuribenzoic acid as an inhibitor in the fluorescence polarization (FP) assay. As there was no known Mcm10 inhibitor, 4-chloromercuribenzoic acid (30 μM) was used as a positive control on initial screening plates. Following the discovery of suramin as a Mcm10 inhibitor, suramin (7 μM) was used as a positive control on subsequent screening plates. To confirm activity, screening hits were tested in dose response experiments (8 concentrations in duplicate) using xMcm10-ID. Similar dose response experiments were conducted with suramin and its analogs to confirm activity for hMcm10-ID (1 μM) and xMcm10-FL (2 μM) and to determine selectivity relative to RPA70AB (0.4 μM). Saturation experiments for each protein were conducted using increasing concentrations of protein with a fixed probe concentration (12.5 nM). FP was measured in mP units, and ∆mP values for each well were calculated as the difference between the measured mP and the average of the “probe only” controls. […] The parallel and perpendicular mP values were also used to calculate total fluorescence intensity (TFI) determined by the sum of parallel mP + (2 x perpendicular mP). TFI was used to detect fluorescence interference by compounds [1]. […] IC50 values were calculated using the four parameter logistic equation in Prism 6.0 (GraphPad). Ki values were obtained using an online Ki calculator according to the equations of Nikolovska-Coleska (http://sw16.im.med.umich.edu/soft-ware/calc_ki/). KD values were calculated using the one site or two site binding equations in Prism 6.0 (GraphPad).

[2] = test system: DNA replication of sperm chromatin in Xenopus egg extracts; assay: In vitro DNA replication assay in Xenopus S-phase egg extracts ([α-32P]dGTP incorporation); format: biochemical; conditions: 10, 50, 150 and 300 µM
Experimental: Xenopus egg extracts were prepared according to the method of Murray. Replication of sperm chromatin in S-phase egg extracts was monitored as previously described. Compounds identified by HTS were added to replication reactions immediately prior to addition of [α-^32P]dGTP (Perkin Elmer BLU514H250UC).
To determine whether the four remaining confirmed HTS hits affected DNA replication, in vitro replication assays were performed using Xenopus S-phase egg extracts incubated with sperm chromatin [25, 34]. DNA replication was measured in the presence of bronopol, fumarprotocetraric acid, iriginol and suramin or DMSO by the incorporation of [α-^32P]dGTP. […] For this reason, further studies focused on suramin alone.
Figure 1. Suramin inhibits DNA replication in an in vitro Xenopus replication assay. HTS hits were evaluated for inhibition of [α-^32P]dGTP incorporation into DNA using a cell-free extract prepared from Xenopus eggs at increasing concentrations (10, 50, 150 and 300 µM indicated by black triangle from right to left). No chemical (–) and DMSO were used as negative controls for replication inhibition (far left and far right lanes).

[3] = target: T2, hMcm10-ID; assay: fluorescence polarization; FP: 20 mM Tris-HCl, 100 mM NaCl, 5% glycerol, 0.01% Triton, pH 7.5, RT 60 min, 12.5 nM probe (0.1% DMSO in HTS); conditions: protein: recombinant; label: 5'-6-FAM; single strand
[4] = target: T3, xMcm10-FL; assay: as above; conditions: protein: recombinant; label: 5'-6-FAM; single strand
[5] = target: RPA70AB (Homo sapiens, UniProt P27694 181-422); assay: as above; conditions: protein: recombinant; label: 5'-6-FAM; single strand
Sequence of RPA70AB (P27694 181-422): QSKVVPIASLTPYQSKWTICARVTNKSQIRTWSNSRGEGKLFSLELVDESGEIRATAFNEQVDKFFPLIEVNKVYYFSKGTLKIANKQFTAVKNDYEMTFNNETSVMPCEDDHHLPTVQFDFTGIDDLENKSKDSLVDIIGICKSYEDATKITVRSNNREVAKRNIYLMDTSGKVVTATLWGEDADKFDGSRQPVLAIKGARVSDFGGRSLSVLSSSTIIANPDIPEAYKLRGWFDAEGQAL

[6] = target: T4, xMcm10-ID; assay: as above; conditions: protein: recombinant; label: 5'-6-FAM; single strand

| Molecule | inhibition of 5′-6FAM probe binding to xMcm10-ID (result in words) [1] | DNA replication, [α-32P]dGTP incorporation (result in words) [2] | Kd [3] [nM] | Kd [4] [nM] | Kd [5] [nM] | Kd [6] [nM] |
| --- | --- | --- | --- | --- | --- | --- |
| O=[N+]([O-])C(Br)(CO)CO [bronopol] | active | only suramin exhibited a dose-dependent decrease in DNA replication | – | – | – | – |
| Cc1cc(O)c(C=O)c2c1C(=O)Oc1c(COC(=O)/C=C/C(=O)O)c(O)c(C(=O)O)c(C)c1O2 [fumarprotocetraric acid] | active | only suramin exhibited a dose-dependent decrease in DNA replication | – | – | – | – |
| CC(=O)Oc1cc(-c2coc3cc(OC(C)=O)c(OC(C)=O)c(OC(C)=O)c3c2=O)cc(OC(C)=O)c1OC(C)=O [iriginol hexaacetate] | active | only suramin exhibited a dose-dependent decrease in DNA replication | – | – | – | – |
| ATGGTAGGCA (ssDNA) [5'-6FAM 10-mer] | – | – | 2290 | 1100 | 370 | 1300 |
